# Read-outs that look alike come from different tables or passages of the source.
# How the values were obtained:
# [1] = biological target: T1, PKC epsilon (Homo sapiens, UniProt Q02156); experiment: Biochemical assay for PKC epsilon (fluorescence polarization, Protein Kinase C Assay Kit, Red); details: Table 2, compounds of Formula XIII
# T1 construct: purchased Invitrogen P2282
# T1 sequence (Q02156 1-737): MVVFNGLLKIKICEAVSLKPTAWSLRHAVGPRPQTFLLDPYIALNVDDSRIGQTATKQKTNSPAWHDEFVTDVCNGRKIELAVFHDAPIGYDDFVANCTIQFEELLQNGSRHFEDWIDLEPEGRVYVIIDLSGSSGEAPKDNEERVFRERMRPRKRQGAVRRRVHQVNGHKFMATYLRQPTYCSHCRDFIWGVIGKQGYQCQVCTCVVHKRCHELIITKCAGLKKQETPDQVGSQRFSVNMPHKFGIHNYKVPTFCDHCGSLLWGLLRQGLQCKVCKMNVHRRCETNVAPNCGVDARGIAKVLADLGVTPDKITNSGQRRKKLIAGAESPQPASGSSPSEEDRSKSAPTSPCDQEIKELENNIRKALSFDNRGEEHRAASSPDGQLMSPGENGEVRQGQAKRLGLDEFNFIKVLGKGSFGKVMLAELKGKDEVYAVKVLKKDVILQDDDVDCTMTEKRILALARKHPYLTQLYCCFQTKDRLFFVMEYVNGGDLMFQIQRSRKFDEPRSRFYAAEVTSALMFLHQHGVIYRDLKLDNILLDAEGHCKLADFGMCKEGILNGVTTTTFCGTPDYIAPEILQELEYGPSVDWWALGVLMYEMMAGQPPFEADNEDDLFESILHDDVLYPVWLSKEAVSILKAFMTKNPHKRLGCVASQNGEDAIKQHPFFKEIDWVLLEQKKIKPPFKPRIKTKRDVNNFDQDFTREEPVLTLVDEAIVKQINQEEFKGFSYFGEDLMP
# Procedure, shortened: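 PKC epsilon at 10 ng/ml final was preincubated 30 min at room temperature with compound in HEPES pH 7.4 with DTT and Triton X-100. ATP/protein substrate was then added in buffer with MgCl2 and CaCl2 for 80 min. The reaction was stopped with EDTA, phosphorylation was detected by fluorescence polarization with rhodamine tracer and anti-phosphoserine antibody, and IC50 values came from curve fits.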
# [2] = biological target: T2, human ROCKα/ROCKII mix (Homo sapiens, UniProt O75116); experiment: Biochemical assay for ROCK (fluorescence polarization, ROCK IMAP Kit); details: Table 2, compounds of Formula XIII
# T2 construct: purchased Upstate Biotechnology 14-451
# T2 sequence (O75116 11-552 limits assumed): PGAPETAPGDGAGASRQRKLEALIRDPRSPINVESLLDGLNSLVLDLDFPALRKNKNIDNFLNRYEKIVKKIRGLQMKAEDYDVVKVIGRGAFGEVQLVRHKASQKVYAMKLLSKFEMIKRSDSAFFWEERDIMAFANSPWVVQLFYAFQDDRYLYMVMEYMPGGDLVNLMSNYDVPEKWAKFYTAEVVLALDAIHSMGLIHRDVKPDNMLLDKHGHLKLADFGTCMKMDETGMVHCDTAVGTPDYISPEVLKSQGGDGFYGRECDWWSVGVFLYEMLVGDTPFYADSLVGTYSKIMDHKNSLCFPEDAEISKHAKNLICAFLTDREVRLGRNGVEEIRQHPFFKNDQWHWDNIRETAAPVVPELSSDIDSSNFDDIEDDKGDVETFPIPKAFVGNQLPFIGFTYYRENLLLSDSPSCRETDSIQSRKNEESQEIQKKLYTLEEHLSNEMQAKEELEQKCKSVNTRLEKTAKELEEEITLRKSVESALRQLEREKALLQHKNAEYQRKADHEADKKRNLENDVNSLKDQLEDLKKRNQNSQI
Structure (SMILES),IC50 ([1]; read-out: IC50 μM PKCε),IC50 [2],IC50 ([1]; IC50 μM PKCε)
"NC(CNC(=O)c1csc(-c2ccccc2)n1)c1ccc(C(=O)Nc2ccncc2)cc1 (centres unmarked) [Compound 124, 2-Phenyl-thiazole-4-carboxylic acid {2-amino-2-[4-(pyridin-4-ylcarbamoyl)-phenyl]-ethyl}-amide]",5 to 50 µM,0.5 to 5 µM,
"NC(CNC(=O)c1csc(Nc2ccc(F)cc2)n1)c1ccc(C(=O)Nc2ccncc2)cc1 (centres unmarked) [Compound 125, 2-(4-Fluoro-phenylamino)-thiazole-4-carboxylic acid {2-amino-2-[4-(pyridin-4-ylcarbamoyl)phenyl]-ethyl}-amide]",0.5 to 5 µM,0.5 to 5 µM,
"Cc1nc(-c2ccccc2)sc1C(=O)NCC(N)c1ccc(C(=O)Nc2ccncc2)cc1 (centres unmarked) [Compound 126, 4-Methyl-2-Phenyl-thiazole-5-carboxylic acid {2-amino-2-[4-(pyridin-4-ylcarbamoyl)-phenyl]-ethyl}-amide]",5 to 50 µM,0.5 to 5 µM,
"NC(CNC(=O)c1ccc2[nH]nnc2c1)c1ccc(C(=O)Nc2ccncc2)cc1 (centres unmarked) [Compound 127, 1H-Benzotriazole-5-carboxylic acid {2-amino-2-[4-(pyridin-4-ylcarbamoyl)-phenyl]-ethyl}-amide]",5 to 50 µM,0.5 to 5 µM,
"COc1ccc2[nH]c(C(=O)NCC(N)c3ccc(C(=O)Nc4ccncc4)cc3)cc2c1 (centres unmarked) [Compound 128, 5-Methoxy-1H-indole-2-carboxylic acid {2-amino-2-[4-(pyridin-4-ylcarbamoyl)-phenyl]-ethyl}-amide]",5 to 50 µM,0.5 to 5 µM,
"NC(CNC(=O)c1cc2cc(F)ccc2[nH]1)c1ccc(C(=O)Nc2ccncc2)cc1 (centres unmarked) [Compound 129, 5-Fluoro-1H-indole-2-carboxylic acid {2-amino-2-[4-(pyridin-4-ylcarbamoyl)-phenyl]-ethyl}-amide]",5 to 50 µM,0.5 to 5 µM,
"NC(CNC(=O)c1cc2ccccc2[nH]1)c1ccc(C(=O)Nc2ccncc2)cc1 (centres unmarked) [Compound 130, 1H-Indole-2-carboxylic acid {2-amino-2-[4-(pyridin-4-ylcarbamoyl)-phenyl]-ethyl}-amide]",5 to 50 µM,0.5 to 5 µM,
"NC(CNC(=O)c1ccc2cc[nH]c2c1)c1ccc(C(=O)Nc2ccncc2)cc1 (centres unmarked) [Compound 131, 1H-Indole-6-carboxylic acid {2-amino-2-[4-(pyridin-4-ylcarbamoyl)-phenyl]-ethyl}-amide]",5 to 50 µM,0.5 to 5 µM,
"NC(CNC(=O)c1ccc2[nH]ccc2c1)c1ccc(C(=O)Nc2ccncc2)cc1 (centres unmarked) [Compound 132, 1H-Indole-5-carboxylic acid {2-amino-2-[4-(pyridin-4-ylcarbamoyl)-phenyl]-ethyl}-amide]",0.5 to 5 µM,0.05 to 0.5 µM,
"COc1cccc2cc(C(=O)NCC(N)c3ccc(C(=O)Nc4ccncc4)cc3)oc12 (centres unmarked) [Compound 133, 7-Methoxy-benzofuran-2-carboxylic acid {2-amino-2-[4-(pyridin-4-ylcarbamoyl)-phenyl]-ethyl}-amide]",5 to 50 µM,0.05 to 0.5 µM,
"NC(CNC(=O)c1cc2cc(Cl)ccc2o1)c1ccc(C(=O)Nc2ccncc2)cc1 (centres unmarked) [Compound 134, 5-Chloro-benzofuran-2-carboxylic acid {2-amino-2-[4-(pyridin-4-ylcarbamoyl)-phenyl]-ethyl}-amide]",5 to 50 µM,0.5 to 5 µM,
"NC(CNC(=O)C(c1ccccc1)C1CCCC1)c1ccc(C(=O)Nc2ccncc2)cc1 (centres unmarked) [Compound 136, 4-[1-Amino-2-(2-cyclopentyl-2-phenyl-acetylamino)-ethyl]-N-pyridin-4-yl-bennzamide]",5 to 50 µM,0.5 to 5 µM,
"NC(CNC(=O)C1(c2ccccc2)CC1)c1ccc(C(=O)Nc2ccncc2)cc1 (centres unmarked) [Compound 137, 4-{1-Amino-2-[(1-phenyl-cyclopropanecarbonyl)-amino]-ethyl}-N-pyridin-4-yl-benzamide]",0.05 to 0.5 µM,0.5 to 5 µM,
"NC(CNC(=O)Cc1ccc(-c2ccccc2)cc1)c1ccc(C(=O)Nc2ccncc2)cc1 (centres unmarked) [Compound 146, 4-[1-Amino-2-(2-biphenyl-4-yl-acetylamino)-ethyl]-N-pyridin-4-yl-benzamide]",5 to 50 µM,0.5 to 5 µM,

# Now from value to molecule:
IC50 ([1]; read-out: IC50 μM PKCε),IC50 [2],IC50 ([1]; IC50 μM PKCε),Structure (SMILES)
5 to 50 µM,0.5 to 5 µM,,"NC(CNC(=O)Cc1ccc2ccccc2c1)c1ccc(C(=O)Nc2ccncc2)cc1 (centres unmarked) [Compound 135, 4-[1-Amino-2-(2-naphtalen-2-yl-acetylamino)-ethyl]-N-pyridin-4-yl-bennzamide]"
5 to 50 µM,0.5 to 5 µM,,"COc1ccccc1CC(=O)NCC(N)c1ccc(C(=O)Nc2ccncc2)cc1 (centres unmarked) [Compound 138, 4-{1-amino-2-[2-(2-methoxy-phenyl)-acetylamino]-ethyl}-N-pyridin-4-yl-benzamide]"
0.5 to 5 µM,0.05 to 0.5 µM,,"COc1cccc(CC(=O)NCC(N)c2ccc(C(=O)Nc3ccncc3)cc2)c1 (centres unmarked) [Compound 139, 4-{1-amino-2-[2-(3-methoxy-phenyl)-acetylamino]-ethyl}-N-pyridin-4-yl-benzamide]"
5 to 50 µM,0.05 to 0.5 µM,,"COc1ccc(CC(=O)NCC(N)c2ccc(C(=O)Nc3ccncc3)cc2)cc1 (centres unmarked) [Compound 140, 4-{1-amino-2-[2-(4-methoxy-phenyl)-acetylamino]-ethyl}-N-pyridin-4-yl-benzamide]"
5 to 50 µM,0.05 to 0.5 µM,,"NC(CNC(=O)Cc1ccc2c(c1)OCO2)c1ccc(C(=O)Nc2ccncc2)cc1 (centres unmarked) [Compound 141, 4-{1-amino-2-(2-benzo[1,3]dioxol-5-yl-acetylamino)-ethyl]-N-pyridin-4-yl-benzamide]"
0.5 to 5 µM,0.05 to 0.5 µM,,"Cc1ccccc1CC(=O)NCC(N)c1ccc(C(=O)Nc2ccncc2)cc1 (centres unmarked) [Compound 142, 4-{1-Amino-2-[2-(2-methyl-phenyl)-acetylamino]-ethyl}-N-pyridin-4-yl-benzamide]"
0.5 to 5 µM,0.05 to 0.5 µM,,"Cc1cccc(CC(=O)NCC(N)c2ccc(C(=O)Nc3ccncc3)cc2)c1 (centres unmarked) [Compound 143, 4-{1-Amino-2-[2-(3-methyl-phenyl)-acetylamino]-ethyl}-N-pyridin-4-yl-benzamide]"
0.5 to 5 µM,0.5 to 5 µM,,"Cc1ccc(C)c(CC(=O)NCC(N)c2ccc(C(=O)Nc3ccncc3)cc2)c1 (centres unmarked) [Compound 144, 4-{1-Amino-2-[2-(2,5-dimethyl-phenyl)-aceylamino]-ethyl}-N-pyridin-4-yl-benzamide]"
0.5 to 5 µM,0.05 to 0.5 µM,,"Cc1ccc(CC(=O)NCC(N)c2ccc(C(=O)Nc3ccncc3)cc2)cc1 (centres unmarked) [Compound 145, 4-{1-Amino-2-[2-(4-methyl-phenyl)-acetylamino]-ethyl}-N-pyridin-4-yl-benzamide]"
0.5 to 5 µM,0.05 to 0.5 µM,,"NC(CNC(=O)Cc1cccc(Cl)c1)c1ccc(C(=O)Nc2ccncc2)cc1 (centres unmarked) [Compound 147, 4-{1-Amino-2-[2-(3-chloro-phenyl)-acetylamino]-ethyl}-N-pyridin-4-yl-benzamide]"
0.05 to 0.5 µM,0.05 to 0.5 µM,,"NC(CNC(=O)Cc1ccc(F)cc1)c1ccc(C(=O)Nc2ccncc2)cc1 (centres unmarked) [Compound 148, 4-{1-Amino-2-[2-(4-fluoro-phenyl)-acetylamino]-ethyl}-N-pyridin-4-yl-benzamide]"
,0.5 to 5 µM,0.5 to 5 µM,"NC(CNC(=O)Cc1c(F)cccc1F)c1ccc(C(=O)Nc2ccncc2)cc1 (centres unmarked) [Compound 149, 4-{1-Amino-2-[2-(2,6-difluororo-phenyl)-acetylamino]-ethyl}-N-pyridin-4-yl-benzamide]"
5 to 50 µM,0.5 to 5 µM,,"NC(CNC(=O)Cc1ccccn1)c1ccc(C(=O)Nc2ccncc2)cc1 (centres unmarked) [Compound 150, 4-[1-Amino-2-(2-pyridin-2-yl-acetylamino)-ethyl]-N-pyridin-4-yl-benzamide]"
5 to 50 µM,0.5 to 5 µM,,"NC(CNC(=O)Cc1ccncc1)c1ccc(C(=O)Nc2ccncc2)cc1 (centres unmarked) [Compound 151, 4-[1-Amino-2-(2-pyridin-4-yl-acetylamino)-ethyl]-N-pyridin-4-yl-benzamide]"
0.5 to 5 µM,0.05 to 0.5 µM,,"NC(CNC(=O)Cc1c[nH]c2ccccc12)c1ccc(C(=O)Nc2ccncc2)cc1 (centres unmarked) [Compound 152, 4-[1-Amino-2-(2-1H-indol-3-yl-acetylamino)-ethyl]-N-pyridin-4-yl-benzamide]"
0.5 to 5 µM,0.05 to 0.5 µM,,"NC(CNC(=O)Cc1cccs1)c1ccc(C(=O)Nc2ccncc2)cc1 (centres unmarked) [Compound 153, 4-[1-amino-2-(2-thiophen-2-yl-acetylamino)-ethyl]-N-pyridin-4-yl-benzamide]"
5 to 50 µM,0.05 to 0.5 µM,,"NC(CNC(=O)Cc1csc(-c2ccccc2)n1)c1ccc(C(=O)Nc2ccncc2)cc1 (centres unmarked) [Compound 154, 4-{1-Amino-2-[2-(2-phenyl-thiazol-4-yl)-acetylamino]-ethyl}-N-pyridin-4-yl-benzamide]"

# — patent US20100168102A9, “Amide Derivatives as Kinase Inhibitors” (Devgen NV, priority 2005, published 2010)
